Experimental data as given in patent publication US11339171B2, “MDM2 inhibitors” (Gan & Lee Pharmaceuticals, priority 2017, dated 2022).
Values joined by “and” are separate entries in the source; they are usually repeats but may differ in a detail not shown here. Equal values may be shown once. Read-outs that look alike come from different tables or passages of the source.

Legend:
MDM2 = target: T1, MDM2 (Homo sapiens, UniProt Q00987); experiment: Inhibition test of MDM2-P53 (GST-MDM2, Biotin-P53, Anti-GST-Tb, SA-XL665); type: binding
T1 construct: made in house
T1 sequence (Q00987 whole entry): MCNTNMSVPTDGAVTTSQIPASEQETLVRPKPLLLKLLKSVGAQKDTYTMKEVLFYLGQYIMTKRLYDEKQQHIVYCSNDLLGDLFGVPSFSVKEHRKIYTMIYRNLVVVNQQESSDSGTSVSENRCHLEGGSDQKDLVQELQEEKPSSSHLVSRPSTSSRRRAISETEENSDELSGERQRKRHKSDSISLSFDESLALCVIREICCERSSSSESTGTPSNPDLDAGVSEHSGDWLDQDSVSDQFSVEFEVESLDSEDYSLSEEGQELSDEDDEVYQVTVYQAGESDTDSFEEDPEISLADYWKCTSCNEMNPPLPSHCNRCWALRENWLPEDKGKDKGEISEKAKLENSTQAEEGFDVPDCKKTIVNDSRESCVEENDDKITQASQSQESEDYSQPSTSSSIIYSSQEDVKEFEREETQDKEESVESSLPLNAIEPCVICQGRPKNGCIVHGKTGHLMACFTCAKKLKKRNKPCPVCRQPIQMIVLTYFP
Summary of the method: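 Compounds, serially diluted 5-fold (twelve concentrations), were shaken for 90 min at 25° C with a mix of GST-MDM2 (4 nM final), Biotin-P53, anti-GST-Tb and SA-XL665. Buffer: 1×PBS, 0.1% BSA, 5 mM DTT, 1 mM AEBSF; signal read on a microplate reader.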

[1] = test system: human osteosarcoma cell line SJSA-1; experiment: Inhibition of proliferation of human osteosarcoma cell line SJSA-1 (DAPI staining, In Cell Analyzer); details: Homo sapiens, SJSA-1, 72 h, read-out: IC50 (nM), inhibitory activity on proliferation of human osteosarcoma cell line SJSA-1, SJSA-1, incubated 72 h
[2] = Pharmacokinetics in ICR mice after intravenous and intragastric administration; type: in vivo; details: for F*: PO 5 mg/kg vs IV 2 mg/kg; for MRT last: read-out: MRT(0-t); for MRT inf: read-out: MRT(0-∞); for Vd: read-out: Vz
Summary of the method: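 Compounds were dissolved at 0.5 mg/ml in DMSO/PEG400/HP-β-CD saline vehicle and given to overnight-fasted male ICR mice, 2 mg/kg by vein or 5 mg/kg by gavage (n=3 each). Plasma was then protein-precipitated, assayed by LC-MS/MS, and PK parameters including oral bioavailability were derived.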

[3] = IV 2 mg/kg, ICR mice, individual animal, 2 mg/kg
[4] = PO 5 mg/kg, ICR mice, individual animal, 5 mg/kg
[5] = male, ICR, mouse, plasma, iv, 2 mg/kg, IV 2 mg/kg, ICR mice, Mean
[6] = male, ICR, mouse, plasma, iv, 2 mg/kg, IV 2 mg/kg, ICR mice, Mean, read-out: AUC(0-t)
[7] = male, ICR, mouse, plasma, iv, 2 mg/kg, IV 2 mg/kg, ICR mice, Mean, read-out: Cmax
[8] = male, ICR, mouse, plasma, iv, 2 mg/kg, IV 2 mg/kg, ICR mice, Mean, read-out: Tmax
[9] = male, ICR, mouse, plasma, iv, 2 mg/kg, IV 2 mg/kg, ICR mice, Mean, read-out: t1/2 (converted)
[10] = male, ICR, mouse, plasma, iv, 2 mg/kg, IV 2 mg/kg, ICR mice, individual animal
[11] = male, ICR, mouse, plasma, iv, 2 mg/kg, IV 2 mg/kg, ICR mice, individual animal, read-out: AUC(0-t)
[12] = male, ICR, mouse, plasma, iv, 2 mg/kg, IV 2 mg/kg, ICR mice, individual animal, read-out: Cmax
[13] = male, ICR, mouse, plasma, iv, 2 mg/kg, IV 2 mg/kg, ICR mice, individual animal, read-out: Tmax
[14] = male, ICR, mouse, plasma, iv, 2 mg/kg, IV 2 mg/kg, ICR mice, individual animal, read-out: t1/2 (converted)
[15] = male, ICR, mouse, plasma, po, 5 mg/kg, PO 5 mg/kg, ICR mice, Mean
[16] = male, ICR, mouse, plasma, po, 5 mg/kg, PO 5 mg/kg, ICR mice, Mean, read-out: AUC(0-t)
[17] = male, ICR, mouse, plasma, po, 5 mg/kg, PO 5 mg/kg, ICR mice, Mean, read-out: Cmax
[18] = male, ICR, mouse, plasma, po, 5 mg/kg, PO 5 mg/kg, ICR mice, Mean, read-out: Tmax
[19] = male, ICR, mouse, plasma, po, 5 mg/kg, PO 5 mg/kg, ICR mice, Mean, read-out: t1/2 (converted)
[20] = male, ICR, mouse, plasma, po, 5 mg/kg, PO 5 mg/kg, ICR mice, individual animal
[21] = male, ICR, mouse, plasma, po, 5 mg/kg, PO 5 mg/kg, ICR mice, individual animal, read-out: AUC(0-t)
[22] = male, ICR, mouse, plasma, po, 5 mg/kg, PO 5 mg/kg, ICR mice, individual animal, read-out: Cmax
[23] = male, ICR, mouse, plasma, po, 5 mg/kg, PO 5 mg/kg, ICR mice, individual animal, read-out: Tmax
[24] = male, ICR, mouse, plasma, po, 5 mg/kg, PO 5 mg/kg, ICR mice, individual animal, read-out: t1/2 (converted)
[25] = male, ICR, mouse, plasma, po, 5 mg/kg, oral intragastric administration 5 mg/kg, read-out: AUC0-t

COc1cc(OC)c(-c2nc3c(n2C(C)C)[C@@]2(C(=O)Nc4cc(Cl)ccc42)N(c2cc(Cl)ccc2C)C3=O)cn1 [Example S-11, (S)-6-chloro-5′-(5-chloro-2-methylphenyl)-2′-(4,6-dimethoxypyridin-3-yl)-3′-isopropyl-3′H-spiro[dihydroindole-3,4′-pyrrolo[3,4-d]imidazole]-2,6′(5′H)-dione]
IC50 (MDM2): 1.58 nM | IC50 [1]: 1.67 nM | AUC(0-t) [2, 3]: 3578.38 ng·h/mL and 4225.58 ng·h/mL | AUC(0-∞) [2, 3]: 3680.24 ng·h/mL and 4820.40 ng·h/mL | CL [2, 3]: 9.06 mL/min/kg and 6.92 mL/min/kg | Cmax [2, 3]: 1376.51 ng/mL and 1519.69 ng/mL | MRT(0-t) [2, 3]: 1.43 h and 1.81 h | MRT(0-∞) [2, 3]: 1.61 h and 2.70 h | Vz [2, 3]: 0.91 L/kg and 1.25 L/kg | t1/2 [2, 3]: 2.09 h | F* ([2]; ICR mice): 102.51% | AUC(0-t) [2, 4]: 8536.56 ng·h/mL and 11568.40 ng·h/mL | AUC(0-∞) [2, 4]: 8816.41 ng·h/mL and 11784.98 ng·h/mL | Cmax [2, 4]: 1573.02 ng/mL and 2144.69 ng/mL | MRT(0-t) [2, 4]: 2.87 h | MRT(0-∞) [2, 4]: 3.11 h and 3.05 h | Tmax [2, 4]: 120 min | t1/2 [2, 4]: 1.55 h and 1.33 h | AUC(0-inf) [2, 5]: 3920 ng·h/mL | clearance [2, 5]: 8.74 mL/min/kg | AUC(0-t) [2, 6]: 3660 ng·h/mL | Cmax [2, 7]: 1400 ng/mL | MRT last [2, 5]: 1.55 h | MRT inf [2, 5]: 1.95 h | Tmax [2, 8]: 30 min | Vd [2, 5]: 1.06 L/kg | half-life [2, 9]: 87.6 min | AUC(0-inf) [2, 10]: 3250 ng·h/mL | clearance [2, 10]: 10.3 mL/min/kg | AUC(0-t) [2, 11]: 3170 ng·h/mL | Cmax [2, 12]: 1300 ng/mL | MRT last [2, 10]: 1.4 h | MRT inf [2, 10]: 1.55 h | Tmax [2, 13]: 30 min | Vd [2, 10]: 1.02 L/kg | half-life [2, 14]: 69 min | AUC(0-inf) [2, 15]: 9790 ng·h/mL | AUC(0-t) [2, 16]: 9370 ng·h/mL | Cmax [2, 17]: 1790 ng/mL | MRT last [2, 15]: 2.92 h | MRT inf [2, 15]: 3.27 h | Tmax [2, 18]: 79.8 min | half-life [2, 19]: 101 min | AUC(0-inf) [2, 20]: 8770 ng·h/mL | AUC(0-t) [2, 21]: 8020 ng·h/mL | Cmax [2, 22]: 1650 ng/mL | MRT last [2, 20]: 2.96 h | MRT inf [2, 20]: 3.66 h | Tmax [2, 23]: 60 min | half-life [2, 24]: 131 min | AUC(0-t) [2, 25]: 9370 ng·h/mL | half-life ([2]; male, ICR, mouse, plasma, po, 5 mg/kg, oral intragastric administration 5 mg/kg, read-out: half-life (converted)): 101 min | bioavailability ([2]; male, ICR, mouse, plasma, oral intragastric administration 5 mg/kg, read-out: bioavailability): 103%

COc1cc(N(C)C)ccc1-c1nc2c(n1C(C)C)[C@@]1(C(=O)Nc3cc(Cl)ccc31)N(c1cc(Cl)ccc1C)C2=O [Example S-23, (S)-6-chloro-5′-(5-chloro-2-methylphenyl)-2′-(4-(dimethylamino)-2-methoxyphenyl)-3′-isopropyl-3′H-spiro[dihydroindole-3,4′-pyrrolo[3,4-d]imidazole]-2,6′(5′H)-dione]
IC50 (MDM2): 2.8 nM | IC50 [1]: 1.24 nM | AUC(0-t) [2, 3]: 6172.76 ng·h/mL and 6625.30 ng·h/mL | AUC(0-∞) [2, 3]: 6427.71 ng·h/mL and 7084.65 ng·h/mL | CL [2, 3]: 5.19 mL/min/kg and 4.71 mL/min/kg | Cmax [2, 3]: 3040.32 ng/mL and 3640.21 ng/mL | MRT(0-t) [2, 3]: 1.50 h and 1.55 h | MRT(0-∞) [2, 3]: 1.75 h and 1.99 h | Vz [2, 3]: 0.60 L/kg and 0.64 L/kg | t1/2 [2, 3]: 1.33 h and 1.57 h | F* ([2]; ICR mice): 43.18% | AUC(0-t) [2, 4]: 9122.66 ng·h/mL and 7675.41 ng·h/mL | AUC(0-∞) [2, 4]: 9163.57 ng·h/mL and 7881.03 ng·h/mL | Cmax [2, 4]: 3316.65 ng/mL and 2730.39 ng/mL | MRT(0-t) [2, 4]: 2.02 h and 2.08 h | MRT(0-∞) [2, 4]: 2.05 h and 2.29 h | Tmax [2, 4]: 30 min | t1/2 [2, 4]: 0.98 h and 1.52 h | AUC(0-inf) [2, 5]: 8010 ng·h/mL | clearance [2, 5]: 4.35 mL/min/kg | AUC(0-t) [2, 6]: 7420 ng·h/mL | Cmax [2, 7]: 3490 ng/mL | MRT last [2, 5]: 1.61 h | MRT inf [2, 5]: 2.07 h | Tmax [2, 8]: 4.98 min | Vd [2, 5]: 0.58 L/kg | half-life [2, 9]: 95.4 min | AUC(0-inf) [2, 10]: 10500 ng·h/mL | clearance [2, 10]: 3.17 mL/min/kg | AUC(0-t) [2, 11]: 9460 ng·h/mL | Cmax [2, 12]: 3780 ng/mL | MRT last [2, 10]: 1.78 h | MRT inf [2, 10]: 2.46 h | Tmax [2, 13]: 4.8 min | Vd [2, 10]: 0.51 L/kg | half-life [2, 14]: 112 min | AUC(0-inf) [2, 15]: 8120 ng·h/mL | AUC(0-t) [2, 16]: 8010 ng·h/mL | Cmax [2, 17]: 2700 ng/mL | MRT last [2, 15]: 2.15 h | MRT inf [2, 15]: 2.26 h | Tmax [2, 18]: 49.8 min | half-life [2, 19]: 73.2 min | AUC(0-inf) [2, 20]: 7320 ng·h/mL | AUC(0-t) [2, 21]: 7240 ng·h/mL | Cmax [2, 22]: 2050 ng/mL | MRT last [2, 20]: 2.35 h | MRT inf [2, 20]: 2.43 h | Tmax [2, 23]: 60 min | half-life [2, 24]: 69 min | AUC(0-t) [2, 25]: 8010 ng·h/mL
